According to patent US7605178B2, “Therapeutic compounds” (Allergan, Inc., priority 2006, dated 2009):
pEC50, pKi: −log10 of the molar value.

Legend:
EP2 [1] = molecular target: T1, EP2 (Homo sapiens, UniProt P43116); experiment: EP2 binding (Ki)
Source text: (§1) U.S. patent application Ser. No. 11/553,143, filed on Oct. 26, 2006, incorporated by reference herein, describes the methods used to obtain the in vitro data in the table below.

hTP = molecular target: T2, hTP (Homo sapiens, UniProt P21731); experiment: Other receptors: hTP functional EC50; format: cell-based
T2 sequence (P21731 1-343): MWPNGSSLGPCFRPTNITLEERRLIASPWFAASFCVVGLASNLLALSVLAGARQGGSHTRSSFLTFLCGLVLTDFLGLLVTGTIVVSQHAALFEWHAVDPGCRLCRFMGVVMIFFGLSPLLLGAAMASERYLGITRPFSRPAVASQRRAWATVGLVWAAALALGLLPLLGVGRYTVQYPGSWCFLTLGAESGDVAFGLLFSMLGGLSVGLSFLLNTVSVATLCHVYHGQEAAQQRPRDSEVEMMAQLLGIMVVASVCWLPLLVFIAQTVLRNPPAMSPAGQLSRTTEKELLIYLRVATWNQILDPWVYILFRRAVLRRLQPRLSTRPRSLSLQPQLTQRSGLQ
Source text: as §1

hIP = hIP (Homo sapiens, UniProt P43119); experiment: Other receptors: hIP functional EC50; format: cell-based
Source text: as §1

EP2 [2] = molecular target: T1, EP2; experiment: EP2 flipr; format: cell-based
Source text: as §1

EP4 [3] = molecular target: T3, EP4 (Homo sapiens, UniProt P35408); experiment: EP4 binding (KI)
Source text: as §1

EP2 [4] = molecular target: T1, EP2; experiment: EP2 cAMP; format: cell-based
Source text: as §1

hDP = molecular target: T4, hDP (Homo sapiens, UniProt Q13258); experiment: Other receptors: hDP functional EC50; format: cell-based
T4 sequence (Q13258 1-359): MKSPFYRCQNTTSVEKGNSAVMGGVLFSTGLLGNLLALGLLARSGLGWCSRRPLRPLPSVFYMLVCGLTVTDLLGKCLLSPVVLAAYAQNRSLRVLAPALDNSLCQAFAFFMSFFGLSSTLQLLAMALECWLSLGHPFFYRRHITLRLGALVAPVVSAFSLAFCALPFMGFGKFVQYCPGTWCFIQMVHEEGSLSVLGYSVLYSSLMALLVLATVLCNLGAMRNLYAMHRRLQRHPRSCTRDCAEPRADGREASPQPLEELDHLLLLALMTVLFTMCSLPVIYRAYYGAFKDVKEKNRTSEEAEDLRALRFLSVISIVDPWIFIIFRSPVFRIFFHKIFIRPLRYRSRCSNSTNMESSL
Source text: as §1

hEP3A = molecular target: T5, hEP3A (Homo sapiens, UniProt P43115); experiment: Other receptors: hEP3A functional EC50; format: cell-based
T5 sequence (P43115 1-390): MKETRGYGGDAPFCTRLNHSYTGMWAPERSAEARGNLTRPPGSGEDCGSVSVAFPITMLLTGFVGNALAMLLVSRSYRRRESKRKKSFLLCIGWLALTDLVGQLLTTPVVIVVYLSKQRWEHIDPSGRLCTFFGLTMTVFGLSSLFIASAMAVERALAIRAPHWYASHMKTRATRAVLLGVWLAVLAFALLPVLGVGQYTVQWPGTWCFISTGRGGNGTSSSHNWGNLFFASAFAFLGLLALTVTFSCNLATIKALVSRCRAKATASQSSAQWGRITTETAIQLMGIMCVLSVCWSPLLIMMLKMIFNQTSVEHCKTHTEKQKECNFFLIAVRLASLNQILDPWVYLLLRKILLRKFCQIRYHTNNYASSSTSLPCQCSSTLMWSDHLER
Source text: as §1

EP4 [5] = molecular target: T3, EP4; experiment: EP4 flipr; format: cell-based
Source text: as §1

[6] = tested on: laser-induced hypertensive monkeys; experiment: Intraocular pressure in laser-induced hypertensive monkeys; format: in vivo; details: 0.01%, one single day dose, at 24 h
Method: (§2) U.S. Pat. No. 7,091,231 describes the methods used for these in vivo tests.
The composition and dosage regimen of In vivo example 1 was also tested in laser-induced hypertensive monkeys, using one single day dose. At 0.01%, the maximum IOP decrease from baseline was 13.9 mmHg (40%) at 24 h.

normotensive dogs = experiment: Intraocular pressure and ocular surface hyperemia in normotensive dogs; format: in vivo; details: 0.01%, once daily for 5 days
Method: as §2
5-(3-((1R,2R,3R,5R)-5-chloro-2-((3,5-dichlorophenylthio)methyl)-3-hydroxycyclopentyl)propyl)-thiophene-2-carboxylic acid (20) was tested in normotensive dogs at 0.01%, dosing once daily for 5 days. The maximum intraocular pressure (IOP) decrease from baseline was 6.3 mmHg (35%) at 6 h; the maximum ocular surface hyperemia (OSH) score was 1.7 at 52 h.

Chain of hIP (P43119 whole entry): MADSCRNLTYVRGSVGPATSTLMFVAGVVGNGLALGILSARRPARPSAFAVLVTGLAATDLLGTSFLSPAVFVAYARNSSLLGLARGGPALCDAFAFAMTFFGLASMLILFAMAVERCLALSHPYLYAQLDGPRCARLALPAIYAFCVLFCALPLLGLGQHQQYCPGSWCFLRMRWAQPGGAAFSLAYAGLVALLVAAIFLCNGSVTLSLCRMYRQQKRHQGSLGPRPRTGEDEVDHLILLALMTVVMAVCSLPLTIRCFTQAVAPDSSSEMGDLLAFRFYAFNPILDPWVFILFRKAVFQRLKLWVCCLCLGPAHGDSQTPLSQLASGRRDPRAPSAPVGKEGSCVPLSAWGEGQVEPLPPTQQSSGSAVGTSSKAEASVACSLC
T1 sequence (P43116 whole entry): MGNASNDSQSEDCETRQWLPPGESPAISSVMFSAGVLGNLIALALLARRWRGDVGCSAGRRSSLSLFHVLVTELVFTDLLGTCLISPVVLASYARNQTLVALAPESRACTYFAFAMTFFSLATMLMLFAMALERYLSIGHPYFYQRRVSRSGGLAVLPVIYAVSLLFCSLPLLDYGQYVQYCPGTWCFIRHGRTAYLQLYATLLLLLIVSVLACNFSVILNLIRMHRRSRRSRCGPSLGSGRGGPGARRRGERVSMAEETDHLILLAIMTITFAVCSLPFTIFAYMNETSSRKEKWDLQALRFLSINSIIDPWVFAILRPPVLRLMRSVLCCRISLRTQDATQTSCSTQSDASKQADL
T3 sequence (P35408 whole entry): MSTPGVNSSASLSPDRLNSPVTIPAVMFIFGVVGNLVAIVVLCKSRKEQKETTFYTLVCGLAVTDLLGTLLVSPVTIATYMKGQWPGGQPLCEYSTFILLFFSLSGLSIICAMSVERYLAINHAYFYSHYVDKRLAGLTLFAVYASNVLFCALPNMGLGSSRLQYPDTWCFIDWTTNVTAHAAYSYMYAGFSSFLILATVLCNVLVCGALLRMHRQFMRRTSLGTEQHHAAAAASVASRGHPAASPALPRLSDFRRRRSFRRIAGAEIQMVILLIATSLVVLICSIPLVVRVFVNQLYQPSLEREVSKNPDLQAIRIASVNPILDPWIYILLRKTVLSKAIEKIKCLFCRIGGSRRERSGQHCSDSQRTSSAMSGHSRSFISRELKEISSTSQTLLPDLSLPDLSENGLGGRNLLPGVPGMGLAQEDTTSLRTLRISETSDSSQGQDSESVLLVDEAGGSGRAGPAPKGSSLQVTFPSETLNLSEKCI

O=C(O)CCC/C=C\C[C@@H]1[C@@H](CSc2cc(Cl)cc(Cl)c2)[C@H](O)C[C@H]1Cl [compound 5, (Z)-7-[(1R,2R,3R,5R)-5-Chloro-2-(3,5-dichloro-phenylsulfanylmethyl)-3-hydroxy-cyclopentyl]-hept-5-enoic acid]
pKi (EP2 [1]): 7.66
EC50 (hTP): 1720 nM
EC50 (hIP): > 10000 nM
pEC50 (EP2 [2]): 5.47
pKi (EP4 [3]): 6.42
pEC50 (EP2 [4]): 9.40
EC50 (hDP): > 10000 nM
EC50 (hEP3A): > 10000 nM
pEC50 (EP4 [5]): < 5.00

CC(=O)N(C[C@@H]1[C@@H](C/C=C\CCCC(=O)O)[C@H](Cl)C[C@H]1O)c1cc(Cl)cc(Cl)c1 [compound 10, (Z)-7-((1R,2S,3R,5R)-2-{[Acetyl-(3,5-dichloro-phenyl)-amino]-methyl}-5-chloro-3-hydroxy-cyclopentyl)-hept-5-enoic acid]
pKi (EP2 [1]): 5.68
EC50 (hTP): 2680 nM
EC50 (hIP): > 10000 nM
pEC50 (EP2 [2]): 5.20
pKi (EP4 [3]): < 5.00
pEC50 (EP2 [4]): 7.54

O=C(O)CCC/C=C\C[C@@H]1[C@@H](CNc2cc(Cl)cc(Cl)c2)[C@H](O)C[C@H]1Cl [compound 11, (Z)-7-{(1R,2S,3R,5R)-5-Chloro-2-[(3,5-dichloro-phenylamino)-methyl]-3-hydroxy-cyclopentyl}-hept-5-enoic acid]
pKi (EP2 [1]): 7.74
EC50 (hTP): > 10000 nM
EC50 (hIP): > 10000 nM
pEC50 (EP2 [2]): 6.87
pKi (EP4 [3]): 5.99
pEC50 (EP2 [4]): 9.30
EC50 (hEP3A): > 10000 nM
pEC50 (EP4 [5]): < 5.00

O=C(O)c1ccc(CCC[C@@H]2[C@@H](CNc3cc(Cl)cc(Cl)c3)[C@H](O)C[C@H]2Cl)s1 [compound 15, 5-(3-((1R,2S,3R,5R)-5-chloro-2-((3,5-dichlorophenylamino)methyl)-3-hydroxycyclopentyl)propyl)-thiophene-2-carboxylic acid]
pKi (EP2 [1]): 6.47
pEC50 (EP2 [2]): < 5.00
pEC50 (EP2 [4]): 6.96

O=C(O)c1ccc(CCC[C@@H]2[C@@H](CSc3cc(Cl)cc(Cl)c3)[C@H](O)C[C@H]2Cl)s1 [compound 20, 5-(3-((1R,2R,3R,5R)-5-chloro-2-((3,5-dichlorophenylthio)methyl)-3-hydroxycyclopentyl)propyl)-thiophene-2-carboxylic acid]
pKi (EP2 [1]): 9.52
maximum IOP decrease from baseline [6]: 13.9 mmHg
maximum IOP decrease from baseline (percent) [6]: 40%
pEC50 (EP2 [2]): 7.23
pKi (EP4 [3]): 6.08
pEC50 (EP2 [4]): 9.96
maximum intraocular pressure (IOP) decrease from baseline (percent) (normotensive dogs; at 6 h): 35%
maximum ocular surface hyperemia (OSH) score (normotensive dogs; at 52 h): 1.7
pEC50 (EP4 [5]): < 5.00

O=C(O)c1ccc(CCC[C@@H]2[C@@H](C[S+]([O-])c3cc(Cl)cc(Cl)c3)[C@H](O)C[C@H]2Cl)s1 (stereo partly drawn) [compound 22, 5-(3-((1R,2R,3R,5R)-5-chloro-2-((3,5-dichlorophenylsulfinyl)methyl)-3-hydroxycyclopentyl)propyl)-thiophene-2-carboxylic acid]
pKi (EP2 [1]): 7.92
EC50 (hTP): 4210 nM
pEC50 (EP2 [2]): 7.00
pKi (EP4 [3]): < 5.00
pEC50 (EP2 [4]): 9.40

O=C(O)c1ccc(CCC[C@@H]2[C@@H](CSc3cc(F)cc(F)c3)[C@H](O)C[C@H]2Cl)s1 [compound 25, 5-(3-((1R,2R,3R,5R)-5-chloro-2-((3,5-difluorophenylthio)methyl)-3-hydroxycyclopentyl)propyl)-thiophene-2-carboxylic acid]
pKi (EP2 [1]): 8.05
pEC50 (EP2 [2]): 6.07
pKi (EP4 [3]): 5.63
pEC50 (EP2 [4]): 8.89
pEC50 (EP4 [5]): < 5.00
